{"source": "patent US8673938B2", "about": "“Chemical compounds” (priority 2006, dated 2014)", "key": {"[1]": {"molecular_target": "T1, human 11βHSD1 enzyme (Homo sapiens (Human), UniProt P28845)", "T1 sequence (P28845 whole entry)": "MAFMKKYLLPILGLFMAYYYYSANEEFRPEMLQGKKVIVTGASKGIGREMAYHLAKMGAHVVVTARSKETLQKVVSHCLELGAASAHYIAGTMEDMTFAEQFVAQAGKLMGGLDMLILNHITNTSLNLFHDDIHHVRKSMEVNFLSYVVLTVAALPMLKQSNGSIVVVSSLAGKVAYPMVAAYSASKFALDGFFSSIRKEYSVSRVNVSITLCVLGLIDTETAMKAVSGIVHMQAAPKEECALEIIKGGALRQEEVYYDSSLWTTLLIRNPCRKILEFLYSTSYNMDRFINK"}, "[2]": {"molecular_target": "T1, human 11βHSD1 enzyme", "test": "biochemical", "conditions": "read-out: % inhibition of human 11-βHSD"}}}
{"smiles": "CCCSc1nc(N2CCC[C@H](CC(=O)O)C2)ccc1C(=O)NC1CCCCC1", "note": "[Example 1, 2-[(3R)-1-[5-(Cyclohexylcarbamoyl)-6-propylsulfanyl-pyridin-2-yl]-3-piperidyl]acetic acid]", "values": [{"measurement": "IC50", "setting": "[1]", "value": 95, "unit": "nM"}, {"measurement": "inhibition at 30 µM", "setting": "[2]", "value": 87, "unit": "%"}]}
